System: aP2 mRNA
Assay: aP2 mRNA expression in differentiated 3T3-L1 adipocytes (Light Cycler)
Assay type: cell-based
Conditions: 3T3-L1, 7 days after differentiation induction, non-treatment control = 100, average ± standard error
Experimental: Differentiation Induction Medium (0.25 μM DEX, 0.5 mM MIX, 10 μg/mL Insulin/10% FBS/DMEM)
55 mL of FBS (fetal bovine serum (manufactured by GIBCO)) was added to 500 mL of DMEM (manufactured by SIGMA) so as to prepare 10% FBS/DMEM. To this 10% FBS/DMEM, 138.75 μL of 1 mM DEX (dexamethasone)/DMSO (manufactured by Nacalai Tesque, Inc.) and 555 μL of 10 mg/mL insulin/PBS (manufactured by SIGMA) were added. Incidentally, the insulin/PBS was obtained by adding 1N HCl to PBS in advance so as to make the solution acidic enough to allow insulin dissolution and then dissolving insulin. […]
Next, culture preadipocytes 3T-L1 were thawed, inoculated in a 100 mm dish and cultured until 3T3-L 1 cells reached about 80% confluence. […] 7 days after the initiation of the differentiation induction, mRNA was extracted using Sepasol(R)—RNA I super (manufactured by Nacalai Tesque, Inc.), and the mRNA expression amounts of 36B4, aP2 and adiponectin, which were indicators of an early period of adipocyte differentiation, were measured using Light Cycler™. Also, the medium 7 days after the differentiation induction was taken in an amount of 1 mL from each well, and the amount of adiponectin in the medium supernatant was measured using a mouse/rat adiponectin ELISA kit (trade name) (manufactured by Otsuka Pharmaceutical Co., Ltd.). […]

SMILES: CC(C)=CCC/C(C)=C/COc1ccc2ccc(=O)oc2c1 [Aurapten, aurapten]
- aP2 mRNA expression amount (ratio to 36B4) (aurapten 1 μM): 208.2 ± 23.4
- aP2 mRNA expression amount (ratio to 36B4) (aurapten 5 μM): 202.7 ± 19.3

Reference: patent US8802723B2, “Metabolic syndrome-improving agent and medicine, supplement, functional food and food additive containing the same” (ARKRAY, Inc., priority 2005, dated 2014)
